Experimental data taken from patent publication US9815833B2, “Pyridine derivative and medical use thereof” (Chengdu Easton Biopharmaceuticals Co., Ltd., priority 2013, dated 2017).

Assays:
[1] = Pharmacokinetic studies on healthy rats; format: in vivo; details: male, rat, po, SD rats, 10 mg/kg i.g., plasma; for AUC(0-t): read-out: AUC0-24
Text: SD rats were used as test animals, and LC/MS/MS method was applied for measuring the drug concentrations of rats at different time after administrating the compounds of the present invention by gavage, respectively. Pharmacokinetic behaviors of the compounds of the present invention on rats were studied, so as to evaluate the pharmacokinetic characteristics thereof.
SD rats, weighing 180-220 g, male, 40 rats, 5 rats in each group, provided by Chengdu Dashuo Biological Technology Co., Ltd.; Production facility license: SCXK (Chuan) 2008-24. Animals were housed in the animal room after purchased, adaptively observed for at least three days, and used for assays unless they were qualified for the quarantine standard.
3.1 Grouping: the rats were randomly grouped according to Table 3, with no significant difference among the groups;
Rats in each group was administrated by gavage with the corresponding investigational drugs according to Table 3, at 5 min, 10 min, 20 min, 30 min, 1 h, 2 h, 4 h, 6 h, 8 h, 10 h, 12 h, 24 h after administration, 0.5 ml of blood was taken into the vacuum blood-collection tubes containing heparin sodium, and centrifuged at 5,000 rpm to obtain plasma which was stored at −20° C.
50 μL plasma at each time after administration was taken, then 150 μL of acetonitrile was added, which was subjected to vortex at 1500 rpm for 2 minutes. Solution was centrifuged for 15 minutes (3500 r/min), after that 10 μL supernatant was analyzed by HPLC/MS/MS.
The pharmacokinetic behaviors of the investigational compounds were subjected to compartmental model fitting, and DAS 2.0 software was used to calculate the main pharmacokinetic parameters.

APTT of healthy mice = experiment: Effects on APTT of healthy mice; format: in vivo, KM mice; details: 5 mg/kg i.g.; for APTT (sec): KM mice, blood collected 1 hour after administration, x ± SD, 10 mice per group; for anticoagulant effect (APTT) compared with positive drug Apixaban: same dose
Text: Test for four coagulation parameters (including prothrombin time (PT), activated partial thromboplastin time (APTT), thrombin time (TT) and fibrinogen (FIB)) belongs to one of clinical inspection items, and is necessary to thrombotic disease inspections or before the surgery. APTT mainly reflects whether the intrinsic coagulation system status is normal or not. Accordingly, the APTT value is used as a detection indicator in this test of the present invention. The anticoagulant effects of the compounds prepared in the Examples of the present invention were evaluated through the effects thereof on APTT of mice.
KM mice, weighing 28-30 g, male, 170 mice, provided by Chengdu Dashuo Biological Technology Co., Ltd.; Production facility license: SCXK (Chuan) 2008-24. Animals were housed in the animal room after purchased, adaptively observed for at least three days, and used for assays unless they were qualified for the quarantine standard.
(1) Grouping: mice were grouped and tested according to Table 1, wherein there were 10 mice in each group.
Mice in each group were administrated with the corresponding investigational drugs (mice in control group were administrated with the normal saline). At 1 hour after administration, blood was collected into 0.5 ml vacuum blood-collection tube containing sodium citrate from mice orbit. APTT values of animals were measured after collecting the blood samples.
Excel was used for statistics, experimental data were expressed as (x±SD), and two-sided T-test method was used to statistically compare the experimental data among multiple groups.

human FXa = human FXa (Homo sapiens, UniProt P00742); experiment: Human FXa inhibition assay (fluorogenic substrate); format: biochemical; details: human FXa 1 nM, substrate 106.7 μM, 30 minutes at room temperature, pH 8.0
human FXa, sequence (P00742 235-488 limits assumed): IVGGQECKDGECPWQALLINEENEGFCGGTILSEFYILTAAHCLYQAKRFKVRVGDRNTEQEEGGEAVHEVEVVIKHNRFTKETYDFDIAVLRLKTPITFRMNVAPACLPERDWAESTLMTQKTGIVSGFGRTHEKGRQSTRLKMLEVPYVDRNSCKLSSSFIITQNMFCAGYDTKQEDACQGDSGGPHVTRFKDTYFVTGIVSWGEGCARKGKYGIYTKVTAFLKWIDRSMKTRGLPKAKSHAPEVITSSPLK
human FXa, sequence (P00742 41-179 partner limits assumed): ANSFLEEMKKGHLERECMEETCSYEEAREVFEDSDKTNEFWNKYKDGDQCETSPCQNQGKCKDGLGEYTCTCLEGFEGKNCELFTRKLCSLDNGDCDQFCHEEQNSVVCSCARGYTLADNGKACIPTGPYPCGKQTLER
Description: Inhibitory effects of the compounds of the present invention on human FXa were studied, to measure IC50 values thereof on human FXa.
human FXa enzyme (Sekisui Diagnostics, REF 526);
Fluorogenic substrate for the FXa assay (American diagnostic, Product No. 222F);
Buffer: 20 mM Tris-HCl, 200 mM NaCl, 2.5 mM CaCl2, pH 8.0.
(2) 10 mM of each compound was 5-fold diluted serially with buffer to different concentrations (from 40 μM to 0.00002048 μM);
(3) 6 μL of the above diluted solutions of Step (2) were added into each well of 384-well plate to make a final volume of 60 μL, and the final concentration of the compound ranged from 4 μM to […];
(4) 30 μL of human FXa enzyme (2 nM) was added into each well, with a final concentration of 1 nM;
(5) 24 μL human FXa fluorescent enzyme substrate (266.7 μM) was added into each well, with a final concentration of 106.7 μM;
(6) the plate was gently shaked for 5 minutes and then incubated for 30 minutes at room temperature, with avoidance from light;
(7) fluorescence signal was read at 360/440 nm, the inhibition percentage was measured, and 4 Parameter Logistic Model in Xlfit software was employed to calculate IC50.

COc1ccc(-n2nc(C(N)=O)c3c2C(=O)N(c2ccc(N4CCCCC4=O)cc2)CC3)cc1 [Apixaban, reference compound]
Cmax [1]: 6850 ng/mL | Tmax [1]: 0.5 h | half-life [1]: 5.2 h | AUC(0-t) [1]: 12900 ng·h/mL | APTT (sec) (APTT of healthy mice): 21.46 ± 2.32 * * sec | APTT value compared with the control group (APTT of healthy mice; mice, 1 h after administration, P<0.01): significantly increase

CSc1ccc(-n2nc(C(N)=O)c3c2C(=O)N(c2ccc(N4CCCCC4=O)cc2)CC3)cc1 [Example 2, 1-(4-methylthiophenyl)-7-oxo-6-[4-(2-oxo-piperidin-1-yl)phenyl]-4,5,6,7-tetrahydro-1H-pyrazolo[3,4-c]pyridine-3-carboxamide]
APTT (sec) (APTT of healthy mice): 24.50 ± 2.50 * * ^Δ sec | anticoagulant effect (APTT) compared with positive drug Apixaban (APTT of healthy mice; mice, 1 h after administration): superior to positive drug Apixaban

NC(=O)c1nn(-c2ccccc2F)c2c1CCN(c1ccc(N3CCCCC3=O)cc1)C2=O [Example 3, 1-(2-fluorophenyl)-7-oxo-6-[4-(2-oxo-piperidin-1-yl)phenyl]-4,5,6,7-tetrahydro-1H-pyrazolo[3,4-c]pyridine-3-carboxamide]
APTT (sec) (APTT of healthy mice): 27.81 ± 3.42 * * ^ΔΔ sec | anticoagulant effect (APTT) compared with positive drug Apixaban (APTT of healthy mice; mice, 1 h after administration): significantly better than positive drug Apixaban

COc1ccc(-n2nc(C(N)=O)c3c2C(=O)N(c2ccc(N4CCCCC4=O)cc2)CC3)cc1F [Example 4, 1-(3-fluoro-4-methoxyphenyl)-7-oxo-6-[4-(2-oxo-piperidin-1-yl)phenyl]-4,5,6,7-tetrahydro-1H-pyrazolo[3,4-c]pyridine-3-carboxamide]
APTT (sec) (APTT of healthy mice): 24.78 ± 2.64 * * ^Δ sec | anticoagulant effect (APTT) compared with positive drug Apixaban (APTT of healthy mice; mice, 1 h after administration): superior to positive drug Apixaban

NC(=O)c1nn(-c2ccccc2F)c2c1CCN(c1ccc(N3CCCC3=O)cc1)C2=O [Example 6, 1-(2-fluorophenyl)-7-oxo-6-[4-(2-oxo-pyrrolidin-1-yl)phenyl]-4,5,6,7-tetrahydro-1H-pyrazolo[3,4-c]pyridine-3-carboxamide]
Cmax [1]: 7560 ng/mL | Tmax [1]: 0.3 h | half-life [1]: 5.8 h | AUC(0-t) [1]: 19800 ng·h/mL | APTT (sec) (APTT of healthy mice): 27.32 ± 3.12 * * ^ΔΔ sec | anticoagulant effect (APTT) compared with positive drug Apixaban (APTT of healthy mice; mice, 1 h after administration): significantly better than positive drug Apixaban

NC(=O)c1nn(-c2cc(F)cc(F)c2)c2c1CCN(c1ccc(N3CCCC3=O)cc1)C2=O [Example 8, 1-(3,5-difluoro-phenyl)-7-oxo-6-[4-(2-oxo-pyrrolidin-1-yl)phenyl]-4,5,6,7-tetrahydro-1H-pyrazolo[3,4-c]pyridine-3-carboxamide]
Cmax [1]: 7860 ng/mL | Tmax [1]: 0.3 h | half-life [1]: 6.2 h | AUC(0-t) [1]: 20100 ng·h/mL | APTT (sec) (APTT of healthy mice): 27.82 ± 2.71 * * ^ΔΔ sec | anticoagulant effect (APTT) compared with positive drug Apixaban (APTT of healthy mice; mice, 1 h after administration): significantly better than positive drug Apixaban

COc1ccc(-n2nc(C(N)=O)c3c2C(=O)N(c2ccc(N4CCCC4=O)cc2C)CC3)cc1 [Example 9, 1-(4-methoxyphenyl)-7-oxo-6-[2-methyl-4-(2-oxo-pyrrolidin-1-yl)phenyl]-4,5,6,7-tetrahydro-1H-pyrazolo[3,4-c]pyridine-3-carboxamide]
Cmax [1]: 9360 ng/mL | Tmax [1]: 0.2 h | half-life [1]: 6.4 h | AUC(0-t) [1]: 36400 ng·h/mL | APTT (sec) (APTT of healthy mice): 31.29 ± 2.80 * * ^ΔΔ sec | anticoagulant effect (APTT) compared with positive drug Apixaban (APTT of healthy mice; mice, 1 h after administration): significantly better than positive drug Apixaban | IC50 (human FXa): 0.078 nM

COc1ccccc1-n1nc(C(N)=O)c2c1C(=O)N(c1ccc(N3CCCC3=O)cc1C)CC2 [Example 10, 1-(2-methoxyphenyl)-7-oxo-6-[2-methyl-4-(2-oxo-pyrrolidin-1-yl)phenyl]-4,5,6,7-tetrahydro-1H-pyrazolo[3,4-c]pyridine-3-carboxamide]
APTT (sec) (APTT of healthy mice): 24.67 ± 2.37 * * ^Δ sec | anticoagulant effect (APTT) compared with positive drug Apixaban (APTT of healthy mice; mice, 1 h after administration): superior to positive drug Apixaban

Cc1ccc(-n2nc(C(N)=O)c3c2C(=O)N(c2ccc(N4CCCC4=O)cc2C)CC3)c(C)c1 [Example 13, 1-(2,4-dimethyl-phenyl)-7-oxo-6-[2-methyl-4-(2-oxo-pyrrolidin-1-yl)phenyl]-4,5,6,7-tetrahydro-1H-pyrazolo[3,4-c]pyridine-3-carboxamide]
APTT (sec) (APTT of healthy mice): 24.78 ± 2.67 * * ^Δ sec | anticoagulant effect (APTT) compared with positive drug Apixaban (APTT of healthy mice; mice, 1 h after administration): superior to positive drug Apixaban

COc1ccc(-n2nc(C(N)=O)c3c2C(=O)N(c2ccc(N4CCCC4=O)cc2C)CC3)cc1F [Example 15, 1-(3-fluoro-4-methoxyphenyl)-7-oxo-6-[2-methyl-4-(2-oxo-pyrrolidin-1-yl)phenyl]-4,5,6,7-tetrahydro-1H-pyrazolo[3,4-c]pyridine-3-carboxamide]
Cmax [1]: 8750 ng/mL | Tmax [1]: 0.25 h | half-life [1]: 6.5 h | AUC(0-t) [1]: 32400 ng·h/mL | APTT (sec) (APTT of healthy mice): 27.97 ± 2.32 * * ^ΔΔ sec | anticoagulant effect (APTT) compared with positive drug Apixaban (APTT of healthy mice; mice, 1 h after administration): significantly better than positive drug Apixaban | IC50 (human FXa): 0.124 nM

COc1ccc(-n2nc(C(N)=O)c3c2C(=O)N(c2ccc(N4CCCCC4=O)cc2C)CC3)cc1 [Example 19, 1-(4-methoxyphenyl)-7-oxo-6-[2-methyl-4-(2-oxo-piperidin-1-yl)phenyl]-4,5,6,7-tetrahydro-1H-pyrazolo[3,4-c]pyridine-3-carboxamide]
APTT (sec) (APTT of healthy mice): 26.73 ± 3.12 * * ^ΔΔ sec | anticoagulant effect (APTT) compared with positive drug Apixaban (APTT of healthy mice; mice, 1 h after administration): significantly better than positive drug Apixaban

Cc1cc(N2CCCCC2=O)ccc1N1CCc2c(C(N)=O)nn(-c3cccc(F)c3)c2C1=O [Example 20, 1-(3-fluorophenyl)-7-oxo-6-[2-methyl-4-(2-oxo-piperidin-1-yl)phenyl]-4,5,6,7-tetrahydro-1H-pyrazolo[3,4-c]pyridine-3-carboxamide]
APTT (sec) (APTT of healthy mice): 24.71 ± 3.20 * * ^Δ sec | anticoagulant effect (APTT) compared with positive drug Apixaban (APTT of healthy mice; mice, 1 h after administration): superior to positive drug Apixaban

COc1ccc(-n2nc(C(N)=O)c3c2C(=O)N(c2ccc(N4CCCCC4=O)cc2OC)CC3)cc1 [Example 21, 1-(4-methoxyphenyl)-7-oxo-6-[2-methoxy-4-(2-oxo-piperidin-1-yl)phenyl]-4,5,6,7-tetrahydro-1H-pyrazolo[3,4-c]pyridine-3-carboxamide]
APTT (sec) (APTT of healthy mice): 24.65 ± 2.18 * * ^Δ sec | anticoagulant effect (APTT) compared with positive drug Apixaban (APTT of healthy mice; mice, 1 h after administration): superior to positive drug Apixaban
